Assay results from patent US8536195B2, “Bicyclic derivatives as modulators of ion channels” (Vertex Pharmaceuticals Incorporated, priority 2005, dated 2013).

system: not given; experiment: not given; conditions: neuropathic pain, modest efficacy; cited from earlier work

| SMILES | share of patients in which it works [%] |
| --- | --- |
| NCC1(CC(=O)O)CCCCC1 [Gabapentin] | 60 |

molecular target: T1, NaV1.3 (Homo sapiens, UniProt Q9NY46); experiment: Activity against NaV 1.3 channel (VIPR optical membrane potential assay with electrical stimulation); assay type: cell-based; parameters: expressed in transfected cells; host or cells: HEK293; conditions: not given
Protocol: Compounds of the invention are useful as antagonists of voltage-gated sodium ion channels. Antagonist properties of test compounds were assessed as follows. Cells expressing the NaV of interest were placed into microtiter plates. After an incubation period, the cells were stained with fluorescent dyes sensitive to the transmembrane potential. The test compounds were added to the microtiter plate. The cells were stimulated with either a chemical or electrical means to evoke a NaV dependent membrane potential change from unblocked channels, which was detected and measured with trans-membrane potential-sensitive dyes. Antagonists were detected as a decreased membrane potential response to the stimulus. The optical membrane potential assay utilized voltage-sensitive FRET sensors described by Gonzalez and Tsien (See Gonzalez, J. E. and R. Y. Tsien (1995) “Voltage sensing by fluorescence resonance energy transfer in single cells” Biophys J 69(4): 1272-80, and Gonzalez, J. E. and R. Y. Tsien (1997) “Improved indicators of cell membrane potential that use fluorescence resonance energy transfer” Chem Biol 4(4): 269-77) in combination with instrumentation for measuring fluorescence changes such as the Voltage/Ion Probe Reader (VIPR®) (See Gonzalez, J. E., K. Oades, et al. (1999) “Cell-based assays and instrumentation for screening ion-channel targets” Drug Discov Today 4(9): 431-439).
The following is an example of how NaV1.3 inhibition activity is measured using the optical membrane potential method #2. Other subtypes are performed in an analogous mode in a cell line expressing the NaV of interest.
HEK293 cells stably expressing NaV1.3 are plated into 96-well microtiter plates. After an appropriate incubation period, the cells are stained with the voltage sensitive dyes CC2-DMPE/DiSBAC2(3) as follows.
2×CC2-DMPE=20 μM CC2-DMPE: 10 mM CC2-DMPE is vortexed with an equivalent volume of 10% pluronic, followed by vortexing in required amount of HBSS containing 10 mM HEPES. Each cell plate will require 5 mL of 2×CC2-DMPE. 50 μL of 2×CC2-DMPE is to wells containing washed cells, resulting in a 10 μM final staining concentration. The cells are stained for 30 minutes in the dark at RT.
2×DISBAC2(3) with ABSC1=6 μM DISBAC2(3) and 1 mM ABSC1: The required amount of 10 mM DISBAC2(3) is added to a 50 ml conical tube and mixed with 1 μL 10% pluronic for each mL of solution to be made and vortexed together. Then HBSS/HEPES is added to make up 2× solution. Finally, the ABSC1 is added.
The 2×DiSBAC2(3) solution can be used to solvate compound plates. Note that compound plates are made at 2× drug concentration. Wash stained plate again, leaving residual volume of 50 μL. Add 50 uL/well of the 2×DiSBAC2(3) w/ABSC1. Stain for 30 minutes in the dark at RT.
The electrical stimulation instrument and methods of use are described in ION Channel Assay Methods PCT/US01/21652, herein incorporated by reference. The instrument comprises a microtiter plate handler, an optical system for exciting the coumarin dye while simultaneously recording the coumarin and oxonol emissions, a waveform generator, a current- or voltage-controlled amplifier, and a device for inserting electrodes in well. Under integrated computer control, this instrument passes user-programmed electrical stimulus protocols to cells within the wells of the microtiter plate.
Insert or use electrodes into each well to be assayed.
Use the current-controlled amplifier to deliver stimulation wave pulses for 3 s. Two seconds of pre-stimulus recording are performed to obtain the un-stimulated intensities. Five seconds of post-stimulation recording are performed to examine the relaxation to the resting state.
Data are analyzed and reported as normalized ratios of background-subtracted emission intensities measured in the 460 nm and 580 nm channels. Background intensities are then subtracted from each assay channel. […]
Target sequence in this assay (Q9NY46 whole entry): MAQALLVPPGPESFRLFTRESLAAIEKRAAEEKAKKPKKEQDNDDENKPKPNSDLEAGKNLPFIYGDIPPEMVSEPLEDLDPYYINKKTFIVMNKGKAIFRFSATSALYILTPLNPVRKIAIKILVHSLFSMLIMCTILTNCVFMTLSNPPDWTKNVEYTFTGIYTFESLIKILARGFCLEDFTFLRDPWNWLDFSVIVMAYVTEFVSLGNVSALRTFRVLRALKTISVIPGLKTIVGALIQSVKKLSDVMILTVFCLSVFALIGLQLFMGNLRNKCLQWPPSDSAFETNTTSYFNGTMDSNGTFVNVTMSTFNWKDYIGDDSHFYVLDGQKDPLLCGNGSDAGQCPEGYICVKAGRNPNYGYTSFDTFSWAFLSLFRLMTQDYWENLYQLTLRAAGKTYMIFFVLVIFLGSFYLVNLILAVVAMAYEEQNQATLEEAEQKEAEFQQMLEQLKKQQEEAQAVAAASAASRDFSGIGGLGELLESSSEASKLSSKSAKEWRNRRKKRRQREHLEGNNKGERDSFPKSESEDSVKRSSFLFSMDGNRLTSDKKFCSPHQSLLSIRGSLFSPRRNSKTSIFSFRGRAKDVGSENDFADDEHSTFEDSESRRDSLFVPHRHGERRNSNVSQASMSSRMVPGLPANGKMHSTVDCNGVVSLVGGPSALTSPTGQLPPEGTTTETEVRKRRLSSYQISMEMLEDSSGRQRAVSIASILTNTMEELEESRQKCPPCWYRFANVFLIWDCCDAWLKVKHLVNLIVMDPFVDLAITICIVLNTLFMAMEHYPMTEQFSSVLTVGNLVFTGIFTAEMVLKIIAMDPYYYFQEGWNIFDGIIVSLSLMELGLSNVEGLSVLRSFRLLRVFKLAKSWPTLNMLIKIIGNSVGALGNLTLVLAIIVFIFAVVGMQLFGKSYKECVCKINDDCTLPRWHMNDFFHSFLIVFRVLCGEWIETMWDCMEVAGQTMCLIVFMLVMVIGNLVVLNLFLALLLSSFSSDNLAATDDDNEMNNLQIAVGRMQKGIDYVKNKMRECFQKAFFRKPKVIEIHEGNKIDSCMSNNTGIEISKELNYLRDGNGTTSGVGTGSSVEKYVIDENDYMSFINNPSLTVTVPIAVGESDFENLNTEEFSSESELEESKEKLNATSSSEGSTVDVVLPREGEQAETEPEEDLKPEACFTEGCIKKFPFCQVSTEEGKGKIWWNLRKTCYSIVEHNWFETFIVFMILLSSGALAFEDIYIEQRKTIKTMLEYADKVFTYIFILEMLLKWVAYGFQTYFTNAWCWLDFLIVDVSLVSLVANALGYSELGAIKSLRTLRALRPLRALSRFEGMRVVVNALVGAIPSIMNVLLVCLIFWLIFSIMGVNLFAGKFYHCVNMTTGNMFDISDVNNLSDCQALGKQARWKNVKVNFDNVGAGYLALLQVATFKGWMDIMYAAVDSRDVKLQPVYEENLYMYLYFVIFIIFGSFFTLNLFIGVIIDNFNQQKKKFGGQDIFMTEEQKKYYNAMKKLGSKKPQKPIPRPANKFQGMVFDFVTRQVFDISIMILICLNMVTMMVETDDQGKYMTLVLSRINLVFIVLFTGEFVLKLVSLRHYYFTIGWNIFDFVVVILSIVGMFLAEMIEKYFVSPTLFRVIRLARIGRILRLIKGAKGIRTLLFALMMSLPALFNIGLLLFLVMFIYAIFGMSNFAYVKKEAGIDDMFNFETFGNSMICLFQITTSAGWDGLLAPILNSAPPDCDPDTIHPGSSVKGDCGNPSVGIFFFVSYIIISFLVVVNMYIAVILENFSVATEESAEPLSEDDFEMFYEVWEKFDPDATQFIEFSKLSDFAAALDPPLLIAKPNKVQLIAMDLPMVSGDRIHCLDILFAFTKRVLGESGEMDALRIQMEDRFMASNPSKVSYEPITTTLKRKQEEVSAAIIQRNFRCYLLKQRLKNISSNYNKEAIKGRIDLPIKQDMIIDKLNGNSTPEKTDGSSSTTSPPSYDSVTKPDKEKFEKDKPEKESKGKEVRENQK

| SMILES | IC50 [µM] |
| --- | --- |
| O=C1Nc2ccc(S(=O)(=O)Nc3nncs3)cc2CC1CCOc1ccc(Cl)cc1Cl (stereo not shown) [Compound 1] | 5 to 20 |
| O=C1Nc2ccc(S(=O)(=O)Nc3nnc(-c4ccccc4)s3)cc2CC1CCOc1ccc(Cl)cc1Cl (stereo not shown) [Compound 2] | 5 to 20 |
| O=C1Nc2ccc(S(=O)(=O)Nc3nccs3)cc2CC1CCOc1ccc(Cl)cc1Cl (stereo not shown) [Compound 3] | 5 to 20 |
| Cc1cc(C)nc(NS(=O)(=O)c2ccc3c(c2)CC(CCOc2ccc(Cl)cc2Cl)C(=O)N3)n1 (stereo not shown) [Compound 4] | 5 to 20 |
| O=C1Nc2ccc(S(=O)(=O)Nc3nc4ccccc4s3)cc2CC1CCOc1ccc(Cl)cc1Cl (stereo not shown) [Compound 5, 3-[2-(2,4-Dichloro-phenoxy)-ethyl]-2-oxo-1,2,3,4-tetrahydro-quinoline-6-sulfonic acid benzothiazol-2-ylamide] | 5 to 20 |
| O=C1Nc2ccc(S(=O)(=O)Nc3cnsn3)cc2CC1CCOc1ccc(Cl)cc1Cl (stereo not shown) [Compound 6] | 5 to 20 |
| Cc1cnc(NS(=O)(=O)c2ccc3c(c2)CC(CCOc2ccc(Cl)cc2Cl)C(=O)N3)s1 (stereo not shown) [Compound 7] | 5 to 20 |
| O=C1Nc2ccc(S(=O)(=O)Nc3ccccn3)cc2CC1CCOc1ccc(Cl)cc1Cl (stereo not shown) [Compound 8] | 5 to 20 |
| O=C1Nc2ccc(S(=O)(=O)Nc3nnc(C4CC4)s3)cc2CC1CCOc1ccc(Cl)cc1Cl (stereo not shown) [Compound 9] | 5 to 20 |
| Cc1ccnc(NS(=O)(=O)c2ccc3c(c2)CC(CCOc2ccc(Cl)cc2Cl)C(=O)N3)n1 (stereo not shown) [Compound 10, 3-[2-(2,4-Dichloro-phenoxy)-ethyl]-2-oxo-1,2,3,4-tetrahydro-quinoline-6-sulfonic acid (4-methyl-pyrimidin-2-yl)-amide] | 5 to 20 |
| Cc1nnc(NS(=O)(=O)c2ccc3c(c2)CC(CCOc2ccc(Cl)cc2Cl)C(=O)N3)s1 (stereo not shown) [Compound 11, 3-[2-(2,4-Dichloro-phenoxy)-ethyl]-2-oxo-1,2,3,4-tetrahydro-quinoline-6-sulfonic acid (5-methyl-[1,3,4]thiadiazol-2-yl)-amide] | 5 to 20 |
| O=C1Nc2ccc(S(=O)(=O)Nc3nc(-c4ccccc4)ns3)cc2CC1CCOc1ccc(Cl)cc1Cl (stereo not shown) [Compound 12] | 5 to 20 |
| COc1nc(NS(=O)(=O)c2ccc3c(c2)CC(CCOc2ccc(Cl)cc2Cl)C(=O)N3)ns1 (stereo not shown) [Compound 13] | 5 to 20 |
| O=C1Nc2ccc(S(=O)(=O)Nc3nc[nH]n3)cc2CC1CCOc1ccc(Cl)cc1Cl (stereo not shown) [Compound 14] | 5 to 20 |
| O=C1Nc2ccc(S(=O)(=O)Nc3ncccn3)cc2CC1CCOc1ccc(Cl)cc1Cl (stereo not shown) [Compound 15] | 5 to 20 |
| Cc1csc(NS(=O)(=O)c2ccc3c(c2)CC(CCOc2ccc(Cl)cc2Cl)C(=O)N3)n1 (stereo not shown) [Compound 16] | 5 to 20 |

molecular target: NaV1.8 (Homo sapiens, UniProt Q9Y5Y9); experiment: not given; conditions: read-out: TTX IC50; cited from earlier work
Sequence (Q9Y5Y9 whole entry, looked up): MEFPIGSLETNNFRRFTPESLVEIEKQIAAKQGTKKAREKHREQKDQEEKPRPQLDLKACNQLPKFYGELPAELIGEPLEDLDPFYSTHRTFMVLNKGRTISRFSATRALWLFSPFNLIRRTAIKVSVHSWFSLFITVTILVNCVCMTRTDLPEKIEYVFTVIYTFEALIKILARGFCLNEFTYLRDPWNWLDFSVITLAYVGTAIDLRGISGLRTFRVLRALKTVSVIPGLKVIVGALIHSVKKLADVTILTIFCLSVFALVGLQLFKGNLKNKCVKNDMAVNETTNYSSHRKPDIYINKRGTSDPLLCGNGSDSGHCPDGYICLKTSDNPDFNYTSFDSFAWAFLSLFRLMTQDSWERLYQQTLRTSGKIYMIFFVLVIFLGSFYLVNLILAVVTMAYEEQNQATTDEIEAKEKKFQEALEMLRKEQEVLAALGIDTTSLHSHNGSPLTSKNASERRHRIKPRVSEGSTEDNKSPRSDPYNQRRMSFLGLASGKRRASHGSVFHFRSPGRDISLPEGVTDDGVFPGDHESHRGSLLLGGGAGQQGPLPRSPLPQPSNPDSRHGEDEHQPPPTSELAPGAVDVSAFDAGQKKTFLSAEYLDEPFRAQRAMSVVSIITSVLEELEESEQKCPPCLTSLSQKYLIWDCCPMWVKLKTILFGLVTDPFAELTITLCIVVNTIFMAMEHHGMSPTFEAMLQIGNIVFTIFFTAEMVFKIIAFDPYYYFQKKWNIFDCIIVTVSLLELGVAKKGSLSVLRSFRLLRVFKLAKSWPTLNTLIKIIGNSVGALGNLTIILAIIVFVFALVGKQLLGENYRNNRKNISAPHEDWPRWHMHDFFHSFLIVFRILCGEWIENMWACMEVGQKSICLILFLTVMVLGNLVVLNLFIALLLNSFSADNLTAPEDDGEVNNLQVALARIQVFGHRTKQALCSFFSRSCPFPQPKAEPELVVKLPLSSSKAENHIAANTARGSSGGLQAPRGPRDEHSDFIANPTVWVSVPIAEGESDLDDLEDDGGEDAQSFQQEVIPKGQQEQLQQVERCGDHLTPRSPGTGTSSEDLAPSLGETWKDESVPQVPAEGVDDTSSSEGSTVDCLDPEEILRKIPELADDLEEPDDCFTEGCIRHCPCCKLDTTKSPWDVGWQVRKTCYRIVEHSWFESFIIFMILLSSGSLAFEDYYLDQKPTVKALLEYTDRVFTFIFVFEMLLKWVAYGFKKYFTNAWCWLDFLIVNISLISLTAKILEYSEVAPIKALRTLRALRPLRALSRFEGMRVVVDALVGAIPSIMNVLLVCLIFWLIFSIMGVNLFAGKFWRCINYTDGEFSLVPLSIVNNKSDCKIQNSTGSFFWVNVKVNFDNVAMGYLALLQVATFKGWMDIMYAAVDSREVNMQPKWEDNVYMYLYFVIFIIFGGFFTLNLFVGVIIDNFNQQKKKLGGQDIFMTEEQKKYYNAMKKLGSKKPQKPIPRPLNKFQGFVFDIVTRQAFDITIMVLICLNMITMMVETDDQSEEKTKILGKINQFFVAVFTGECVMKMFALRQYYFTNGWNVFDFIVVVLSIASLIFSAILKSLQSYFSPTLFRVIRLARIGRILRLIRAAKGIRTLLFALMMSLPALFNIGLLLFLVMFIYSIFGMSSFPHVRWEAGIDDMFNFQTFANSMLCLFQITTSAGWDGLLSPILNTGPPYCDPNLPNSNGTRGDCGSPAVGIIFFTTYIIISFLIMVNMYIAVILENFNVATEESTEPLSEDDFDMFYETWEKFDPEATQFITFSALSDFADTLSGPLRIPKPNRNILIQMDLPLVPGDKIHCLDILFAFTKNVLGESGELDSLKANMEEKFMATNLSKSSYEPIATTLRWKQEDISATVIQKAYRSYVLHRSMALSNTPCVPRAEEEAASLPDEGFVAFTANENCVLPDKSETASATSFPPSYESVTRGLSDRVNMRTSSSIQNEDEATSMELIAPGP

| SMILES | IC50 [µM] |
| --- | --- |
| NC1=N[C@H](O)[C@H]2[C@H]3O[C@]4(O)O[C@@H]([C@@H](O)[C@@]2(N1)[C@@H]4O)[C@]3(O)CO [TTX, tetrodotoxin] | > 50 |

molecular target: T1, NaV1.3; experiment: not given; conditions: read-out: TTX IC50; cited from earlier work
Target sequence in this assay (Q9NY46 whole entry, looked up): as the sequence (Q9NY46 whole entry) above

| SMILES | IC50 [µM] |
| --- | --- |
| NC1=N[C@H](O)[C@H]2[C@H]3O[C@]4(O)O[C@@H]([C@@H](O)[C@@]2(N1)[C@@H]4O)[C@]3(O)CO [TTX, tetrodotoxin] | 0.015 |
